Patent US9695155B2, “Herbicidal substituted pyrimidinyloxy benzene compounds” (E. I. DU PONT DE NEMOURS AND COMPANY, priority 2013, dated 2017)

Legend:
[1] = system: giant foxtail; test: Test A preemergence; format: in vivo, Setaria faberii
How it was run: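 Visual 0–100 rating (100 = complete control) taken about 10 d post-treatment relative to untreated checks. Preemergence: directed soil spray on sown loam/sand pots. Postemergence: seedlings 2–10 cm, 1–2 leaf. Non-phytotoxic solvent formulation with surfactant.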

[2] = system: wild oat; test: Test C postemergence; format: in vivo, Avena fatua
How it was run: (§1)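 Rated visually on 0–100 (100 = complete control) after 13–15 days under glass. Treatments went onto freshly seeded loam/sand soil or onto emerged plants at the 1- to 4-leaf stage, using a surfactant-containing solvent formulation.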

[3] = system: Italian ryegrass; test: Test C postemergence; format: in vivo, Lolium multiflorum
How it was run: as §1

[4] = system: corn; test: Test C postemergence; format: in vivo, Zea mays
How it was run: as §1

[5] = system: large (Lg) crabgrass; test: Test C postemergence; format: in vivo, Digitaria sanguinalis
How it was run: as §1

[6] = system: blackgrass; test: Test C postemergence; format: in vivo, Alopecurus myosuroides
How it was run: as §1

[7] = system: chickweed; test: Test C postemergence; format: in vivo, Stellaria media
How it was run: as §1

[8] = system: johnsongrass; test: Test C postemergence; format: in vivo, Sorghum halepense
How it was run: as §1

[9] = system: yellow nutsedge; test: Test C postemergence; format: in vivo, Cyperus esculentus
How it was run: as §1

[10] = system: waterhemp; test: Test C postemergence; format: in vivo, Amaranthus rudis
How it was run: as §1

[11] = system: giant foxtail; test: Test C postemergence; format: in vivo, Setaria faberii
How it was run: as §1

[12] = 500 g ai/ha, 0 to 100 scale where 0 is no effect and 100 is complete control
[13] = 16 g ai/ha, postemergence, 0 is no effect, 100 is complete control
[14] = 125 g ai/ha, postemergence, visual rating, scale 0 to 100 (0 no effect, 100 complete control)
[15] = Postemergence, 62 g ai/ha, scale 0 to 100 (0 no effect, 100 complete control)
[16] = Postemergence, 31 g ai/ha, scale 0 to 100 (0 no effect, 100 complete control), 13 to 15 days

SMILES: Clc1cnc(Oc2cccc(Br)c2-n2cc(I)nn2)nc1 [Compound 117]
- Plant response rating, Foxtail, Giant ([1]; 125 g ai/ha, 0 to 100 scale where 0 is no effect and 100 is complete control): 90
- Foxtail, Giant plant response rating [1, 12]: 100
- Plant response rating (0 to 100), Oat, Wild [2, 13]: 10
- Plant response rating, Oat, Wild [2, 14]: 20
- Plant response rating, Oat, Wild [2, 15]: 10
- Plant response rating (0 to 100), Ryegrass, Italian [3, 13]: 0
- Plant response rating, Ryegrass, Italian [3, 14]: 5
- Plant response rating, Ryegrass, Italian [3, 15]: 0
- Plant response rating (0 to 100), Corn [4, 13]: 5
- Plant response rating, Corn [4, 14]: 5
- Plant response rating, Corn [4, 15]: 5
- Plant response rating (0 to 100), Crabgrass, Large [5, 13]: 10
- Plant response rating, Crabgrass, Large [5, 14]: 20
- Plant response rating, Crabgrass, Large [5, 15]: 20
- Plant response rating (0 to 100), Blackgrass [6, 13]: 5
- Plant response rating, Blackgrass [6, 14]: 10
- Plant response rating, Blackgrass [6, 16]: 10
- Plant response rating, Blackgrass [6, 15]: 5
- Plant response rating (0 to 100), Chickweed [7, 13]: 50
- Plant response rating, Chickweed [7, 14]: 80
- Plant response rating, Chickweed [7, 15]: 70
- Plant response rating (0 to 100), Johnsongrass [8, 13]: 0
- Plant response rating, Johnsongrass [8, 14]: 5
- Plant response rating, Johnsongrass [8, 15]: 5
- Plant response rating (0 to 100), Nutsedge, Yellow [9, 13]: 5
- Plant response rating, Nutsedge, Yellow [9, 14]: 5
- Plant response rating, Nutsedge, Yellow [9, 15]: 5
- Plant response rating (0 to 100), Waterhemp [10, 13]: 60
- Plant response rating, Waterhemp [10, 14]: 90
- Plant response rating, Waterhemp [10, 15]: 85
- Plant response rating (0 to 100), Foxtail, Giant [11, 13]: 20
- Plant response rating, Foxtail, Giant [11, 14]: 55
- Plant response rating, Foxtail, Giant [11, 15]: 40

SMILES: FCc1cn(-c2ccccc2Oc2ncc(Cl)cn2)nn1 [Compound 123]
- Foxtail, Giant plant response rating ([1]; 1000 g ai/ha, 0 to 100 scale, 0 no effect, 100 complete control, approx. 10 days): 100
- Plant response rating (0 to 100), Oat, Wild [2, 13]: 0
- Plant response rating, Oat, Wild [2, 14]: 0
- Plant response rating, Oat, Wild [2, 15]: 0
- Plant response rating (0 to 100), Ryegrass, Italian [3, 13]: 0
- Plant response rating, Ryegrass, Italian [3, 14]: 0
- Plant response rating, Ryegrass, Italian [3, 15]: 0
- Plant response rating (0 to 100), Corn [4, 13]: 0
- Plant response rating, Corn [4, 14]: 5
- Plant response rating, Corn [4, 15]: 5
- Plant response rating (0 to 100), Crabgrass, Large [5, 13]: 0
- Plant response rating, Crabgrass, Large [5, 14]: 5
- Plant response rating, Crabgrass, Large [5, 15]: 5
- Plant response rating (0 to 100), Blackgrass [6, 13]: 0
- Plant response rating, Blackgrass [6, 14]: 0
- Plant response rating, Blackgrass [6, 16]: 0
- Plant response rating, Blackgrass [6, 15]: 0
- Plant response rating (0 to 100), Chickweed [7, 13]: 5
- Plant response rating, Chickweed [7, 14]: 60
- Plant response rating, Chickweed [7, 15]: 50
- Plant response rating (0 to 100), Johnsongrass [8, 13]: 10
- Plant response rating, Johnsongrass [8, 14]: 10
- Plant response rating, Johnsongrass [8, 15]: 10
- Plant response rating (0 to 100), Nutsedge, Yellow [9, 13]: 5
- Plant response rating, Nutsedge, Yellow [9, 14]: 10
- Plant response rating, Nutsedge, Yellow [9, 15]: 10
- Plant response rating (0 to 100), Waterhemp [10, 13]: 25
- Plant response rating, Waterhemp [10, 14]: 80
- Plant response rating, Waterhemp [10, 15]: 80
- Plant response rating (0 to 100), Foxtail, Giant [11, 13]: 0
- Plant response rating, Foxtail, Giant [11, 14]: 20
- Plant response rating, Foxtail, Giant [11, 15]: 20

SMILES: N#Cc1cccc(Oc2ncc(Cl)cn2)c1-n1cc(SC(F)(F)F)cn1 [Compound 134, 3-[(5-chloro-2-pyrimidinyl)oxy]-2-[4-(trifluoromethylthio)-1-pyrazolyl]benzonitrile]
- Foxtail, Giant plant response rating [1, 12]: 100
- pest or weed control at 125 g/ha ([1]; Setaria faberi, pre-emergence, 240 h, 125 g ai/ha, 0 to 100 scale where 0 is no effect and 100 is complete control, read-out: Plant response rating, Foxtail, Giant): 100%
- pest or weed control at 16 g/ha ([2]; Avena fatua, post-emergence, 16 g ai/ha, postemergence, 0 is no effect, 100 is complete control, read-out: Plant response rating (0 to 100), Oat, Wild): 5%
- pest or weed control at 125 g/ha ([2]; Avena fatua, post-emergence, 125 g ai/ha, postemergence, visual rating, scale 0 to 100 (0 no effect, 100 complete control), read-out: Plant response rating, Oat, Wild): 10%
- pest or weed control at 62 g/ha ([2]; Avena fatua, post-emergence, Postemergence, 62 g ai/ha, scale 0 to 100 (0 no effect, 100 complete control), read-out: Plant response rating, Oat, Wild): 10%
- pest or weed control at 16 g/ha ([3]; Lolium multiflorum, post-emergence, 16 g ai/ha, postemergence, 0 is no effect, 100 is complete control, read-out: Plant response rating (0 to 100), Ryegrass, Italian): 10%
- pest or weed control at 125 g/ha ([3]; Lolium multiflorum, post-emergence, 125 g ai/ha, postemergence, visual rating, scale 0 to 100 (0 no effect, 100 complete control), read-out: Plant response rating, Ryegrass, Italian): 0%
- pest or weed control at 62 g/ha ([3]; Lolium multiflorum, post-emergence, Postemergence, 62 g ai/ha, scale 0 to 100 (0 no effect, 100 complete control), read-out: Plant response rating, Ryegrass, Italian): 5%
- plant injury at 16 g/ha ([4]; Zea mays, post-emergence, 16 g ai/ha, postemergence, 0 is no effect, 100 is complete control, read-out: Plant response rating (0 to 100), Corn): 5%
- Corn plant response rating (crop injury, 0 = no effect, 100 = complete kill) at 125 g/ha ([4]; Zea mays, post-emergence, 125 g ai/ha, postemergence, visual rating, scale 0 to 100 (0 no effect, 100 complete control)): 5%
- Corn plant response rating (crop injury, 0 = no effect, 100 = complete kill) at 62 g/ha ([4]; Zea mays, post-emergence, Postemergence, 62 g ai/ha, scale 0 to 100 (0 no effect, 100 complete control)): 10%
- pest or weed control at 16 g/ha ([5]; Digitaria sanguinalis, post-emergence, 16 g ai/ha, postemergence, 0 is no effect, 100 is complete control, read-out: Plant response rating (0 to 100), Crabgrass, Large): 5%
- pest or weed control at 125 g/ha ([5]; Digitaria sanguinalis, post-emergence, 125 g ai/ha, postemergence, visual rating, scale 0 to 100 (0 no effect, 100 complete control), read-out: Plant response rating, Crabgrass, Large): 15%
- pest or weed control at 62 g/ha ([5]; Digitaria sanguinalis, post-emergence, Postemergence, 62 g ai/ha, scale 0 to 100 (0 no effect, 100 complete control), read-out: Plant response rating, Crabgrass, Large): 10%
- pest or weed control at 16 g/ha ([6]; Alopecurus myosuroides, post-emergence, 16 g ai/ha, postemergence, 0 is no effect, 100 is complete control, read-out: Plant response rating (0 to 100), Blackgrass): 5%
- pest or weed control at 125 g/ha ([6]; Alopecurus myosuroides, post-emergence, 125 g ai/ha, postemergence, visual rating, scale 0 to 100 (0 no effect, 100 complete control), read-out: Plant response rating, Blackgrass): 10%
- pest or weed control at 31 g/ha ([6]; Alopecurus myosuroides, post-emergence, Postemergence, 31 g ai/ha, scale 0 to 100 (0 no effect, 100 complete control), 13 to 15 days, read-out: Plant response rating, Blackgrass): 25%
- pest or weed control at 62 g/ha ([6]; Alopecurus myosuroides, post-emergence, Postemergence, 62 g ai/ha, scale 0 to 100 (0 no effect, 100 complete control), read-out: Plant response rating, Blackgrass): 5%
- pest or weed control at 16 g/ha ([7]; Stellaria media, post-emergence, 16 g ai/ha, postemergence, 0 is no effect, 100 is complete control, read-out: Plant response rating (0 to 100), Chickweed): 45%
- pest or weed control at 125 g/ha ([7]; Stellaria media, post-emergence, 125 g ai/ha, postemergence, visual rating, scale 0 to 100 (0 no effect, 100 complete control), read-out: Plant response rating, Chickweed): 80%
- pest or weed control at 62 g/ha ([7]; Stellaria media, post-emergence, Postemergence, 62 g ai/ha, scale 0 to 100 (0 no effect, 100 complete control), read-out: Plant response rating, Chickweed): 55%
- pest or weed control at 16 g/ha ([8]; Sorghum halepense, post-emergence, 16 g ai/ha, postemergence, 0 is no effect, 100 is complete control, read-out: Plant response rating (0 to 100), Johnsongrass): 5%
- pest or weed control at 125 g/ha ([8]; Sorghum halepense, post-emergence, 125 g ai/ha, postemergence, visual rating, scale 0 to 100 (0 no effect, 100 complete control), read-out: Plant response rating, Johnsongrass): 15%
- pest or weed control at 62 g/ha ([8]; Sorghum halepense, post-emergence, Postemergence, 62 g ai/ha, scale 0 to 100 (0 no effect, 100 complete control), read-out: Plant response rating, Johnsongrass): 5%
- pest or weed control at 16 g/ha ([9]; Cyperus, post-emergence, 16 g ai/ha, postemergence, 0 is no effect, 100 is complete control, read-out: Plant response rating (0 to 100), Nutsedge, Yellow): 0%
- pest or weed control at 125 g/ha ([9]; Cyperus, post-emergence, 125 g ai/ha, postemergence, visual rating, scale 0 to 100 (0 no effect, 100 complete control), read-out: Plant response rating, Nutsedge, Yellow): 10%
- pest or weed control at 62 g/ha ([9]; Cyperus, post-emergence, Postemergence, 62 g ai/ha, scale 0 to 100 (0 no effect, 100 complete control), read-out: Plant response rating, Nutsedge, Yellow): 10%
- pest or weed control at 16 g/ha ([10]; Amaranthus tuberculatus, post-emergence, 16 g ai/ha, postemergence, 0 is no effect, 100 is complete control, read-out: Plant response rating (0 to 100), Waterhemp): 55%
- pest or weed control at 125 g/ha ([10]; Amaranthus tuberculatus, post-emergence, 125 g ai/ha, postemergence, visual rating, scale 0 to 100 (0 no effect, 100 complete control), read-out: Plant response rating, Waterhemp): 85%
- pest or weed control at 62 g/ha ([10]; Amaranthus tuberculatus, post-emergence, Postemergence, 62 g ai/ha, scale 0 to 100 (0 no effect, 100 complete control), read-out: Plant response rating, Waterhemp): 60%
- pest or weed control at 16 g/ha ([11]; Setaria faberi, post-emergence, 16 g ai/ha, postemergence, 0 is no effect, 100 is complete control, read-out: Plant response rating (0 to 100), Foxtail, Giant): 5%
- pest or weed control at 125 g/ha ([11]; Setaria faberi, post-emergence, 125 g ai/ha, postemergence, visual rating, scale 0 to 100 (0 no effect, 100 complete control), read-out: Plant response rating, Foxtail, Giant): 5%
- pest or weed control at 62 g/ha ([11]; Setaria faberi, post-emergence, Postemergence, 62 g ai/ha, scale 0 to 100 (0 no effect, 100 complete control), read-out: Plant response rating, Foxtail, Giant): 5%
